Reference: ChEMBL document CHEMBL6109137, “Design, Synthesis, Evaluation, and SAR of 5-Phenylisoindoline Derivatives, a Potent Class of Small-Molecule Inhibitors Targeting the Programmed Cell Death-1/Programmed Cell Death-Ligand 1 (PD-1/PD-L1) Interaction” (J Med Chem, 2025)
Active and inactive are the calls of the source. The rule behind the calls is not given here.

Experiments:
[1] = Tmax in Sprague-Dawley rat at 20 mg/kg, po measured for 24 hrs by LC-MS/MS analysis; assay type: ADME, organism-based; conditions: in vivo
[2] = Toxicity in C57BL/6J mouse implanted with mouse MC38 cells assessed as change in brain index at 5 to 20 mg/kg, ip qd for 13 days; assay type: organism-based; conditions: in vivo, 312 h, dose 5-20 mg/kg, time 13 day
[3] = Cytotoxicity against human L02 cells measured after 48 hrs by MTT assay; assay type: toxicity, cell-based
[4] = system: MC-38; test: Antitumor activity against mouse MC38 cells implanted in C57BL/6J mouse at 5 to 20 mg/kg, ip qd for 13 days relative to control; assay type: functional; conditions: dose 5-20 mg/kg, time 13 day
[5] = AUC (0 to infinity) in Sprague-Dawley rat at 20 mg/kg, po measured for 24 hrs by LC-MS/MS analysis; assay type: ADME, organism-based; conditions: in vivo
[6] = Toxicity in C57BL/6J mouse implanted with mouse MC38 cells assessed as change in spleen index at 5 to 20 mg/kg, ip qd for 13 days; assay type: organism-based; conditions: in vivo, 312 h, dose 5-20 mg/kg, time 13 day
[7] = system: Mus musculus; test: Restoration of immune function in C57BL/6J mouse implanted with mouse MC38 cells assessed as increase in serum TNF-alpha level administered intraperitoneally once daily for 13 days by ELISA; assay type: functional, organism-based; conditions: dose 5-20 mg/kg, route ip, time 13.0 day
[8] = Toxicity in C57BL/6J mouse implanted with mouse MC38 cells assessed as change in MPV count at 40 to 160 mg/kg, IG qd for 7 days; assay type: organism-based; conditions: in vivo, po, 168 h, dose 40-160 mg/kg, time 7 day
[9] = system: MC-38; test: Antitumor activity against mouse MC38 cells implanted in C57BL/6J mouse assessed as increase in infiltration of CD8+ T cells at 5 to 20 mg/kg, ip qd for 13 days by IHC analysis; assay type: functional, organism-based; conditions: dose 5-20 mg/kg, time 13.0 day

With `C[C@H](N)C(=O)N1Cc2ccc(-c3cccc(-c4ccc5c(c4)OCCO5)c3Cl)cc2C1.Cl` as the compound, how does the Tmax [1] read?
Its Tmax is 2.5 h.

What about the Activity [2] of the same compound?
Its Activity is “Non-toxic”.

What about the IC50 at 48 h [3] of the same compound?
The IC50 at 48 h was greater than 10 µM.

And the TGI [4]?
The TGI was 52.8%.

What about the AUC(0-inf) [5] of the same compound?
The AUC(0-inf) was 644 ng·h/mL.

And the Activity [6]?
The Activity was “Non-toxic”.

What about the Activity [7] of the same compound?
The Activity was “Dose-dependent-effect”.

And the Activity [8]?
The Activity was “Non-toxic”.

What about the Activity [9] of the same compound?
Its Activity is “Active”.
